Measured values: PubChem BioAssay (NCI)
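How tested: cells in 96-well plates exposed to compound for 48 hours at five concentrations. At the GI50, growth is halved. TGI marks complete inhibition of growth.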

Key:
Assay in all cases: inhibition of tumour cell growth, NCI panel, 48 h
[1] = test system: MOLT-4 leukemia
[2] = test system: NCI-H226 lung
[3] = test system: NCI-H23 lung
[4] = test system: NCI-H460 lung
[5] = test system: NCI-H522 lung
[6] = test system: OVCAR-3 ovarian
[7] = test system: OVCAR-4 ovarian
[8] = test system: OVCAR-5 ovarian
[9] = test system: OVCAR-8 ovarian
[10] = test system: PC-3 prostate
[11] = test system: RPMI-8226 leukemia
[12] = test system: RXF 393 renal
[13] = test system: SF-268 CNS
[14] = test system: SF-295 CNS
[15] = test system: SF-539 CNS
[16] = test system: SK-MEL-2 melanoma
[17] = test system: SK-MEL-28 melanoma
[18] = test system: SK-MEL-5 melanoma
[19] = test system: SK-OV-3 ovarian
[20] = test system: SN12C renal
[21] = test system: SNB-19 CNS
[22] = test system: SR leukemia
[23] = test system: SW-620 colon
[24] = test system: T-47D breast
[25] = test system: TK-10 renal
[26] = test system: U251 CNS
[27] = test system: UACC-257 melanoma
[28] = test system: UACC-62 melanoma
[29] = test system: UO-31 renal

Q: With Cn1cc(-c2cc3nc(-c4cn(C)c5ncc(Br)cc45)cc(N)n3n2)c2cc(F)ccc21 as the compound, how does the TGI [1] read?
A: Its TGI is greater than 100 µM.

Q: What about the GI50 [2] of the same compound?
A: Its GI50 is 5.36 µM.

Q: And the TGI [2]?
A: The TGI was 19.8 µM.

Q: And the GI50 [3]?
A: The GI50 was 7.44 µM.

Q: And the TGI [3]?
A: The TGI was 21.3 µM.

Q: And the GI50 [4]?
A: The GI50 was 3.44 µM.

Q: What about the TGI [4] of the same compound?
A: Its TGI is 11.6 µM.

Q: What about the GI50 [5] of the same compound?
A: Its GI50 is 5.61 µM.

Q: And the TGI [5]?
A: Its TGI is 21.6 µM.

Q: What about the GI50 [6] of the same compound?
A: The GI50 was 11.1 µM.

Q: And the TGI [6]?
A: The TGI was 27 µM.

Q: What about the GI50 [7] of the same compound?
A: Its GI50 is 4.51 µM.

Q: What about the TGI [7] of the same compound?
A: The TGI was 19.3 µM.

Q: And the GI50 [8]?
A: Its GI50 is 12.5 µM.

Q: What about the TGI [8] of the same compound?
A: Its TGI is 29.4 µM.

Q: And the GI50 [9]?
A: The GI50 was 6.2 µM.

Q: What about the TGI [9] of the same compound?
A: The TGI was 20.9 µM.

Q: And the GI50 [10]?
A: The GI50 was 10.4 µM.

Q: And the TGI [10]?
A: The TGI was 46.8 µM.

Q: What about the GI50 [11] of the same compound?
A: Its GI50 is 10.1 µM.

Q: What about the TGI [11] of the same compound?
A: The TGI was greater than 100 µM.

Q: What about the GI50 [12] of the same compound?
A: The GI50 was 2.54 µM.

Q: And the TGI [12]?
A: The TGI was 5.96 µM.

Q: What about the GI50 [13] of the same compound?
A: The GI50 was 19.2 µM.

Q: And the TGI [13]?
A: Its TGI is 79.8 µM.

Q: And the GI50 [14]?
A: The GI50 was 1.8 µM.

Q: And the TGI [14]?
A: The TGI was 3.82 µM.

Q: What about the GI50 [15] of the same compound?
A: The GI50 was 3.54 µM.

Q: What about the TGI [15] of the same compound?
A: Its TGI is 13 µM.

Q: And the GI50 [16]?
A: The GI50 was 11.4 µM.

Q: What about the TGI [16] of the same compound?
A: Its TGI is 24.2 µM.

Q: What about the GI50 [17] of the same compound?
A: Its GI50 is 3.9 µM.

Q: What about the TGI [17] of the same compound?
A: Its TGI is 14.4 µM.

Q: And the GI50 [18]?
A: The GI50 was 12.5 µM.

Q: And the TGI [18]?
A: The TGI was 25.4 µM.

Q: And the GI50 [19]?
A: The GI50 was 15 µM.

Q: And the TGI [19]?
A: The TGI was 32.4 µM.

Q: What about the GI50 [20] of the same compound?
A: The GI50 was 4.41 µM.

Q: And the TGI [20]?
A: The TGI was 19.8 µM.

Q: And the GI50 [21]?
A: The GI50 was 11 µM.

Q: And the TGI [21]?
A: The TGI was 23.8 µM.

Q: What about the GI50 [22] of the same compound?
A: Its GI50 is 4.58 µM.

Q: What about the TGI [22] of the same compound?
A: Its TGI is greater than 100 µM.

Q: And the GI50 [23]?
A: The GI50 was 6.46 µM.

Q: What about the TGI [23] of the same compound?
A: The TGI was 21.5 µM.

Q: And the GI50 [24]?
A: Its GI50 is 3.25 µM.

Q: What about the TGI [24] of the same compound?
A: Its TGI is 15.6 µM.

Q: What about the GI50 [25] of the same compound?
A: The GI50 was 4.92 µM.

Q: And the TGI [25]?
A: Its TGI is 18.8 µM.

Q: And the GI50 [26]?
A: The GI50 was 3.23 µM.

Q: And the TGI [26]?
A: Its TGI is 11.5 µM.

Q: What about the GI50 [27] of the same compound?
A: Its GI50 is 7.29 µM.

Q: And the TGI [27]?
A: Its TGI is 21.4 µM.

Q: And the GI50 [28]?
A: Its GI50 is 2.64 µM.

Q: And the TGI [28]?
A: Its TGI is 10.9 µM.

Q: And the GI50 [29]?
A: Its GI50 is 12.2 µM.

Q: And the TGI [29]?
A: Its TGI is 25.4 µM.
